Laboratory results reported in ChEMBL document CHEMBL1201862, “PubChem BioAssay data set” (2004).
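Exposure lasted 48 hours, with cells grown in 96-well plates and compounds tested at five concentrations. Here, GI50 denotes the concentration required for 50% inhibition of growth.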 The source made the active and inactive calls. Cut-off read from the data, not from the text of the source: active = GI50 up to about 1.1 µM and inactive = higher.

What was measured:
Assay in all cases: NCI-60 cell line screen, 48 h
OVCAR-8 = system: OVCAR-8
K562 = system: K562
SF-295 = system: SF-295
COLO 205 = system: COLO 205
CCRF-CEM = system: CCRF-CEM
LOX IMVI = system: LOX IMVI
LXFL 529 = system: LXFL 529
ACHN = system: ACHN
HCC 2998 = system: HCC 2998
M19-MEL = system: M19-MEL
A498 = system: A498
HOP-62 = system: HOP-62
SW-620 = system: SW-620
NCI-H23 = system: NCI-H23
A549 = system: A549
KM-20L2 = system: KM-20L2
HT-29 = system: HT-29
OVCAR-5 = system: OVCAR-5
TK-10 = system: TK-10
SR = system: SR
Malme-3M = system: Malme-3M
DLD-1 = system: DLD-1
SK-MEL-5 = system: SK-MEL-5
SF-268 = system: SF-268
OVCAR-4 = system: OVCAR-4
786-0 = system: 786-0
IGROV-1 = system: IGROV-1
HOP-18 = system: HOP-18
SN12C = system: SN12C
NCI-H226 = system: NCI-H226
HCT-15 = system: HCT-15
MOLT-4 = system: MOLT-4
RPMI-8226 = system: RPMI-8226
RXF 393 = system: RXF 393
KM12 = system: KM12
UACC-62 = system: UACC-62
M14 = system: M14
SNB-78 = system: SNB-78
HOP-92 = system: HOP-92
SNB-75 = system: SNB-75
RXF 631 = system: RXF 631
UACC-257 = system: UACC-257
NCI-H460 = system: NCI-H460
DMS-114 = system: DMS-114
UO-31 = system: UO-31
XF498 = system: XF498
HCT-116 = system: HCT-116
OVCAR-3 = system: OVCAR-3
EKVX = system: EKVX
DMS-273 = system: DMS-273
HL-60 = system: HL-60
SK-OV-3 = system: SK-OV-3
U-251 = system: U-251
SK-MEL-28 = system: SK-MEL-28
SK-MEL-2 = system: SK-MEL-2
Hs-578T = system: Hs-578T
MDA-N = system: MDA-N
MCF7 = system: MCF7
CAKI-1 = system: CAKI-1
MDA-MB-231 = system: MDA-MB-231
NCI/ADR-RES = system: NCI/ADR-RES
NCI-H522 = system: NCI-H522
SF-539 = system: SF-539
SNB-19 = system: SNB-19
PC-3 = system: PC-3
MDA-MB-435 = system: MDA-MB-435
T47D = system: T47D
DU-145 = system: DU-145
BT-549 = system: BT-549

COc1ccc(C[C@H](N)C(=O)NC2C(CO)OC(n3cnc4c(N(C)C)ncnc43)C2O)cc1 (stereo not given in full)
GI50 (OVCAR-8): 182 nM (active) | GI50 (K562): 133 nM (active) | GI50 (SF-295): 340 nM (active) | GI50 (COLO 205): 154 nM (active) | GI50 (CCRF-CEM): 145 nM (active) | GI50 (LOX IMVI): 112 nM (active) | GI50 (LXFL 529): 121 nM (active) | GI50 (ACHN): 1010 nM (active) | GI50 (HCC 2998): 290 nM (active) | GI50 (M19-MEL): 296 nM (active) | GI50 (A498): 1040 nM (active) | GI50 (HOP-62): 427 nM (active) | GI50 (SW-620): 143 nM (active) | GI50 (NCI-H23): 161 nM (active) | GI50 (A549): 492 nM (active) | GI50 (KM-20L2): 513 nM (active) | GI50 (HT-29): 262 nM (active) | GI50 (OVCAR-5): 5310 nM (inactive) | GI50 (TK-10): 670 nM (active) | GI50 (SR): 138 nM (active) | GI50 (Malme-3M): 524 nM (active) | GI50 (DLD-1): 1110 nM (active) | GI50 (SK-MEL-5): 234 nM (active) | GI50 (SF-268): 354 nM (active) | GI50 (OVCAR-4): 389 nM (active) | GI50 (786-0): 695 nM (active) | GI50 (IGROV-1): 451 nM (active) | GI50 (HOP-18): 2130 nM (inactive) | GI50 (SN12C): 178 nM (active) | GI50 (NCI-H226): 174 nM (active) | GI50 (HCT-15): 2860 nM | GI50 (MOLT-4): 130 nM (active) | GI50 (RPMI-8226): 220 nM (active) | GI50 (RXF 393): 261 nM (active) | GI50 (KM12): 262 nM (active) | GI50 (UACC-62): 152 nM (active) | GI50 (M14): 378 nM (active) | GI50 (SNB-78): 213 nM (active) | GI50 (HOP-92): 196 nM (active) | GI50 (SNB-75): 80.7 nM (active) | GI50 (RXF 631): 1000 nM (active) | GI50 (UACC-257): 358 nM (active) | GI50 (NCI-H460): 255 nM (active) | GI50 (DMS-114): 170 nM (active) | GI50 (UO-31): 2680 nM (inactive) | GI50 (XF498): 45.8 nM (active) | GI50 (HCT-116): 115 nM (active) | GI50 (OVCAR-3): 273 nM (active) | GI50 (EKVX): 202 nM (active) | GI50 (DMS-273): 258 nM (active) | GI50 (HL-60): 141 nM (active) | GI50 (SK-OV-3): 395 nM (active) | GI50 (U-251): 29.7 nM (active) | GI50 (SK-MEL-28): 187 nM (active) | GI50 (SK-MEL-2): 415 nM (active)

COc1cccc2c1C(=N)c1c(O)c3c(c(O)c1C2=O)C[C@@](O)(C(C)=O)C[C@@H]3OC1CC(N)C(O)C(C)O1 (stereo not given in full)
GI50 (Hs-578T): 1.23 nM (active) | GI50 (K562): 0.159 nM (active) | GI50 (SF-295): 0.206 nM (active) | GI50 (COLO 205): 394 nM (active) | GI50 (CCRF-CEM): 0.1 nM (active) | GI50 (LOX IMVI): 6.38 nM (active) | GI50 (LXFL 529): 542 nM (active) | GI50 (ACHN): 244 nM (active) | GI50 (HCC 2998): 409 nM (active) | GI50 (M19-MEL): 486 nM (active) | GI50 (A498): 3000 nM (inactive) | GI50 (HOP-62): 125 nM (active) | GI50 (SW-620): 199 nM (active) | GI50 (NCI-H23): 8.75 nM (active) | GI50 (A549): 8.32 nM (active) | GI50 (MDA-N): < 10 nM (active) | GI50 (MCF7): 805 nM (active) | GI50 (KM-20L2): 0.374 nM (active) | GI50 (CAKI-1): 141 nM (active) | GI50 (HT-29): 400 nM (active) | GI50 (MDA-MB-231): < 10 nM (active) | GI50 (OVCAR-5): 0.445 nM (active) | GI50 (TK-10): 1310 nM (inactive) | GI50 (SR): 4.66 nM (active) | GI50 (Malme-3M): 0.721 nM (active) | GI50 (DLD-1): 2200 nM (inactive) | GI50 (SK-MEL-5): 196 nM (active) | GI50 (NCI/ADR-RES): 0.159 nM (active) | GI50 (SF-268): 9.38 nM (active) | GI50 (OVCAR-4): 1830 nM (inactive) | GI50 (786-0): 171 nM (active) | GI50 (IGROV-1): 1380 nM (inactive) | GI50 (HOP-18): 428 nM (active) | GI50 (SN12C): 7.71 nM (active) | GI50 (NCI-H226): 137 nM (active) | GI50 (HCT-15): 3270 nM | GI50 (MOLT-4): 0.132 nM (active) | GI50 (RPMI-8226): 0.159 nM (active) | GI50 (RXF 393): 1230 nM (inactive) | GI50 (KM12): 313 nM (active) | GI50 (UACC-62): 9.4 nM (active) | GI50 (M14): 9.57 nM (active) | GI50 (NCI-H522): 163 nM (active) | GI50 (SF-539): 7.89 nM (active) | GI50 (SNB-19): 8.11 nM (active) | GI50 (SNB-78): 2000 nM (inactive) | GI50 (HOP-92): 655 nM (active) | GI50 (SNB-75): 7.64 nM (active) | GI50 (PC-3): < 10 nM (active) | GI50 (RXF 631): 728 nM (active) | GI50 (NCI-H460): 5.73 nM (active) | GI50 (DMS-114): 148 nM (active) | GI50 (UO-31): 3.69 nM (active) | GI50 (XF498): 202 nM (active) | GI50 (MDA-MB-435): < 10 nM (active) | GI50 (T47D): 4.7 nM (active) | GI50 (HCT-116): 7.45 nM (active) | GI50 (EKVX): 1420 nM (inactive) | GI50 (DMS-273): 76.6 nM (active) | GI50 (SK-OV-3): 430 nM (active) | GI50 (U-251): 0.228 nM (active) | GI50 (SK-MEL-28): 2300 nM (inactive) | GI50 (DU-145): 3.86 nM (active) | GI50 (BT-549): < 10 nM (active) | GI50 (SK-MEL-2): 1480 nM (inactive)
